Here are results for 25 compounds from patent US6583309B1 (University of Medicine and Dentistry of New Jersey, priority 1999, dated 2003).

The structures appear in SMILES notation.

By Kd is commonly meant the concentration at which binding is half-saturated.

For the assay, the target named is TAR RNA. Nature of the assay: In vitro binding of resin-bound compounds to TAR RNA (OD260 of unbound RNA). More on the design: species or system HIV. To be noted: in vitro assay; compounds of formula I on TentaGel beads incubated with TAR RNA overnight at 4° C. in TK buffer; read-out: Kd (nM), binding constants. As for the experimental part:
Binding of compounds of formula I and V to TAR RNA was measured by evaluating their inhibition of TAR-TAT complex formation in the presence of increasing levels of the compound to be tested. The compounds of formula I were tested in an in vitro assay; the compounds of formula V were tested in an in vivo assay.
The TAR RNA used corresponds to the minimal sequence required for TAT responsiveness in vivo. This 29-residue oligonucleotide has the sequence: 5′-[…]-3′ (SEQ ID NO.: 1). TAR RNA was prepared by in vitro transcription. A “top strand” single-stranded DNA oligomer having the sequence 5′-TAATACGACTCACTATAG-3′ (SEQ ID NO.: 2) was annealed to a “bottom strand” single-stranded DNA template having the following sequence: 3′-[…]-5′ (SEQ ID NO.: 3), thereby generating a double-stranded region corresponding to a promoter sequence recognized by T7 RNA polymerase. Transcription was carried out in transcription buffer (40 mM Tris-HCl, pH 8.1, 1 mM spermidine, 0.01% Triton®X-100, 5 mM dithiothreitol, 4 mM each of ATP, GTP, CTP, and UTP at 37° C. for 4 to 5 hours. Reactions were performed in a volume of 0.02 ml containing 8 pmole of template (top strand annealed to bottom strand) and 40 to 60 units of T7 RNA polymerase. Transcription was terminated by adding an equal volume of loading buffer (9M urea, 1 mmol EDTA, 0.1M bromophenol blue in 1XTBE buffer; TBE is 45 mmol trisborate at pH 8). Product RNA was purified by electrophoresis through a denaturing 20% polyacrylamide gel containing 8M urea. RNA was extracted from the gel, precipitated, dissolved in dithylpyrocarbonate-treated water, and stored at −20° C. until used.
In vitro assay conditions: Compounds AA-DU were synthesized on TentaGel S—NH2 (4.6 mmole). All Fmoc-amino acids were purchased from Bachem (Torrance, Calif.). 1-hydroxybenzotriazole (HOBT) and diisopropylcarbodiimide (DIPCDI) were obtained from Aldrich Chemical Co., Milwalkee, Wis. Piperidine and trifluoroacetic acid were purchased from Applied Biosystems Division, Perkin-Elmer. Compounds AA-DU were synthesized manually according to standard solid-phase peptide synthesis protocols. Coupling efficiencies of residues at each step were monitored by Kaiser test. Deprotection of trimer peptides was carried out in 10% water in trifluoroacetic acid (1 mL) for 16 hours at room temperature. After filtration of solvents, the resin was washed with water (1 mL×4), DMF (1 mL×4), dichloromethane (1 mL×4), and dried under reduced pressure. The compounds attached to the resin (10 beads) were placed in an Eppendorf tube and washed with TK buffer ([…]). The beads were suspended in TK buffer ([…]) and incubated with TAR RNA ([…]) overnight at 4° C. The suspension was centrifuged and the supernatant containing unbound RNA was transferred to a cuvette for OD260 measurements. The UV absorbance was measured by a Shimadzu UV-1601 spectrometer. Equilibrium concentrations of RNA were determined from these measurements. Given that the initial concentrations of ligand and RNA are known, and assuming simple bimolecular receptor/substrate binding, dissociation constant (KD) was calculated from straightforward equations.
In the case of `NCCCCCNCC(=O)N[C@H](CCCCN)COC(=O)N[C@@H](CCCCN)COC(N)=O` [Compound CE, Carbamic acid 6-amino-2-{6-amino-2-[2-(5-amino-pentylamino)-acetylamino]-hexyloxycarbonylamino}-hexyl ester], the Kd came to 301 nM.
Consider `NCCCCCN(CC(=O)N[C@H](CCCCN)COC(N)=O)C(=O)[C@H](N)CCCCN` [Compound BE, Carbamic acid 6-amino-2-{2-[(5-amino-pentyl)-(2,6-diamino-hexanoyl)-amino]-acetylamino}-hexyl ester], for which the Kd came to 678 nM.
For `NCCCCCCCNCC(=O)N(CCCCCN)CC(=O)N[C@H](CCCCN)COC(N)=O` [Compound BG, Carbamic acid 6-amino-2-{2-[[2-(7-amino-heptylamino)-acetyl]-(5-amino-pentyl)-amino]-acetylamino}-hexyl ester] the value was 431 nM; for `NCCCC[C@@H](COC(N)=O)NC(=O)OC[C@H](CCCCN)NC(=O)OC[C@H](N)CCC(N)=O` [Compound CR, Carbamic acid 6-amino-2-[6-amino-2-(2-amino-4-carbamoyl-butoxycarbonylamino)-hexyloxycarbonylamino]-hexyl ester], 981 nM; for `NCCCCCNCC(=O)N(CCCCCN)CC(=O)N[C@H](CCCCN)COC(N)=O` [Compound BF, Carbamic acid 6-amino-2-(2-{(5-amino-pentyl)-[2-(5-amino-pentylamino)-acetyl]-amino}-acetylamino)-hexyl ester], 147 nM.
Turning to `NCCCCCN(CC(=O)N[C@@H](CCCCN)COC(N)=O)C(=O)[C@@H](N)CCCCN` [Compound DD, Carbamic acid 6-amino-2-{2-[(5-amino-pentyl)-(2,6-diamino-hexanoyl)-amino]-acetylamino}-hexyl ester], the equilibrium dissociation constant (Kd) came out at 567 nM.
The same measure for `NCCCCCNCC(=O)N(CCCCN)CC(=O)N[C@@H](CCCCN)COC(N)=O` [Compound CW]: 3980 nM; for `NCCCCCCCNCC(=O)N(CCCCCCCN)CC(=O)N[C@@H](CCCCN)COC(N)=O` [Compound DP, Carbamic acid 6-amino-2-(2-{(7-amino-heptyl)-[2-(7-amino-heptylamino)-acetyl]-amino}-acetylamino)-hexyl ester]: 774 nM; for `NCCCC[C@@H](COC(N)=O)NC(=O)CN(CCCCN)C(=O)[C@@H](N)CCCCN` [Compound CU, Carbamic acid 6-amino-2-{2-[(4-amino-butyl)-(2,6-diamino-hexanoyl)-amino]-acetylamino}-hexyl ester]: 718 nM.
As to `NCCCC[C@H](COC(N)=O)NC(=O)[C@H](CCCCN)NC(=O)[C@H](N)CCCCN` [Compound BW, Carbamic acid 6-amino-2-[6-amino-2-(2,6-diamino-hexanoylamino)-hexanoylamino]-hexyl ester], the Kd worked out at 678 nM.
`NCCCC[C@H](COC(N)=O)NC(=O)CN(CCCCN)C(=O)[C@H](N)CCCCN` [Compound AV, Carbamic acid 6-amino-2-{2-[(4-amino-butyl)-(2,6-diamino-hexanoyl)-amino]-acetylamino}-hexyl ester]: the Kd was 325 nM.
Consider `NCCCC[C@@H](COC(N)=O)NC(=O)CN(CCCCN)C(=O)OC[C@H](N)CCC(N)=O` [Compound DA, Carbamic acid 6-amino-2-{2-[(4-amino-butyl)-(2-amino-4-carbamoyl-butoxycarbonyl)-amino]-acetylamino}-hexyl ester], for which the Kd came out at 301 nM.
As to `NCCCCCN(CC(=O)N[C@H](CCCCN)COC(N)=O)C(=O)OC[C@@H](N)CCCCN` [Compound BB, Carbamic acid 6-amino-2-{2-[(5-amino-pentyl)-(2,6-diamino-hexyloxycarbonyl)-amino]-acetylamino}-hexyl ester], the Kd amounted to 256 nM.
Take `NCCCCCCCN(CC(=O)N[C@H](CCCCN)COC(N)=O)C(=O)[C@@H](N)CCCCN` [Compound BM, Carbamic acid 6-amino-2-{2-[(7-amino-heptyl)-(2,6-diamino-hexanoyl)-amino]-acetylamino}-hexyl ester]: the Kd is 403 nM.
For `N=C(N)NCCC[C@H](N)COC(=O)N[C@@H](CCCCN)C(=O)N[C@H](CCCCN)COC(N)=O` [Compound DT, Carbamic acid 6-amino-2-[6-amino-2-(2-amino-5-guanidino-pentyloxycarbonylamino)-hexanoylamino]-hexyl ester], the Kd was found to be 215 nM.
The same measure for `NCCCCCN(CC(=O)N[C@H](CCCCN)COC(N)=O)C(=O)CNCCCCN` [Compound BH, Carbamic acid 6-amino-2-{2-[[2-(4-amino-butylamino)-acetyl]-(5-amino-pentyl)-amino]-acetylamino}-hexyl ester]: 2530 nM; for `NCCCC[C@@H](N)COC(=O)N[C@H](CCCCN)COC(=O)N[C@@H](CCCCN)COC(N)=O` [Compound CB, Carbamic acid 6-amino-2-[6-amino-2-(2,6-diamino-hexyloxycarbonylamino)-hexyloxycarbonylamino]-hexyl ester]: 603 nM; for `NCCCC[C@H](COC(N)=O)NC(=O)OC[C@H](CCCCN)NC(=O)OC[C@H](N)CCC(N)=O` [Compound AR, Carbamic acid 6-amino-2-[6-amino-2-(2-amino-4-carbamoyl-butoxycarbonylamino)-hexyloxycarbonylamino]-hexyl ester]: 376 nM.
For `NCCCCCN(CC(=O)N[C@@H](CCCCN)COC(N)=O)C(=O)[C@H](N)CCCCN` [Compound DE, Carbamic acid 6-amino-2-{2-[(5-amino-pentyl)-(2,6-diamino-hexanoyl)-amino]-acetylamino}-hexyl ester] the value was 120 nM.
In the case of `N=C(N)NCCC[C@H](N)COC(=O)N(CCCCCCCN)CC(=O)N[C@H](CCCCN)COC(N)=O` [Compound BR, Carbamic acid 6-amino-2-{2-[(2-amino-5-guanidino-pentyloxycarbonyl)-(7-amino-heptyl)-amino]-acetylamino}-hexyl ester], the Kd stood at 5590 nM.
As for `NCCCCCCCN(CC(=O)N[C@H](CCCCN)COC(N)=O)C(=O)[C@H](N)CCCCN` [Compound BN, Carbamic acid 6-amino-2-{2-[(7-amino-heptyl)-(2,6-diamino-hexanoyl)-amino]-acetylamino}-hexyl ester], the Kd turned out to be 3150 nM.
As to `NCCCC[C@H](N)COC(=O)N[C@@H](CCCCN)C(=O)N[C@H](CCCCN)COC(N)=O` (stereo in doubt) [Compound BT, Carbamic acid 6-amino-2-[6-amino-2-(2,6-diamino-hexyloxycarbonylamino)-hexanoylamino]-hexyl ester], the dissociation constant (Kd) was determined as 202 nM.
The same measure for `NCCCCNCC(=O)N[C@H](CCCCN)COC(=O)N[C@H](CCCCN)COC(N)=O` [Compound AG, Carbamic acid 6-amino-2-{6-amino-2-[2-(4-amino-butylamino)-acetylamino]-hexyloxycarbonylamino}-hexyl ester]: 403 nM; for `NCCCC[C@H](COC(N)=O)NC(=O)OC[C@@H](CCCCN)NC(=O)[C@@H](N)CCCCN` [Compound AC, Carbamic acid 6-amino-2-[6-amino-2-(2,6-diamino-hexanoylamino)-hexyloxycarbonylamino]-hexyl ester]: 215 nM.
Take `NCCCCNCC(=O)N[C@@H](CCCCN)C(=O)N[C@H](CCCCN)COC(N)=O` [Compound BZ, Carbamic acid 6-amino-2-{6-amino-2-[2-(4-amino-butylamino)-acetylamino]-hexanoylamino}-hexyl ester]: the Kd worked out at 130 nM.
